The target in this assay is T1, soluble guanylate cyclase (Homo sapiens, UniProt Q02153).
T1 construct: expressed in transfected cells
Put plainly: CHO cellular assay (cGMP production, Cisbio cGMP HTRF). In kind it is cell-based. As to conditions: CHO K1 cells overexpressing human GUCYA3/GUCYB3 (clone 8E10), 1 mM IBMX, 20 uM ODQ, 1 h room temperature, listed 0.5 nM means actual EC50 ≤0.5 nM (quantification limit). The source says:
Chinese hamster ovary (CHO) cells overexpressing soluble guanylate cyclase were generated to test the effect of sGC activators in a cellular context. Human cDNAs for GUCYA3 (RefSeq: NM_000856.3) and GUCYB3 (RefSeq: NM_000857.1) were amplified by PCR from a HUVEC (Human Umbilical Vein Endothelial Cells) cDNA library and cloned into mammalian expression vectors. CHO K1 cells (ATCC CCL-61) were transfected using Lipofectamine 2000 following manufacturer's instructions and stably expressing clones were identified by antibiotic selection. CHO GUCY clone 8E10 was used for subsequent experiments.
Cells were seeded at a density of 3000 cells/well in white 384-well proxyplates (Perkin Elmer) and incubated overnight, then the medium was removed and cells were washed with assay buffer (HBSS, 0.1% BSA, 1 mM IBMX, 20 uM ODQ). sGC activators were serially diluted in DMSO, then diluted in assay buffer prior to adding to cells (10 ul/well, final DMSO concentration 0.5%). Cells were incubated with compounds for 1 h room temperature, then assayed for cGMP production using Cisbio cGMP HTRF kit (62GM2PEC) according to manufacturer's instructions.
The EC50s are calculated based on the amount of cGMP interpolated from the standard curve, using a 4-parameter sigmoidal dose-response.
Compounds of invention are active on sGC activation. Data on Table 1 collected using the assay of Biological Example 1. The minimum EC50 quantification limit of the assay is 0.5 nM, therefore any compound listed as having an EC50 value of 0.5 nM has a actual EC50 of ≤0.5 nM.

Molecules are shown by their SMILES.

T1 sequence (Q02108 whole entry partner): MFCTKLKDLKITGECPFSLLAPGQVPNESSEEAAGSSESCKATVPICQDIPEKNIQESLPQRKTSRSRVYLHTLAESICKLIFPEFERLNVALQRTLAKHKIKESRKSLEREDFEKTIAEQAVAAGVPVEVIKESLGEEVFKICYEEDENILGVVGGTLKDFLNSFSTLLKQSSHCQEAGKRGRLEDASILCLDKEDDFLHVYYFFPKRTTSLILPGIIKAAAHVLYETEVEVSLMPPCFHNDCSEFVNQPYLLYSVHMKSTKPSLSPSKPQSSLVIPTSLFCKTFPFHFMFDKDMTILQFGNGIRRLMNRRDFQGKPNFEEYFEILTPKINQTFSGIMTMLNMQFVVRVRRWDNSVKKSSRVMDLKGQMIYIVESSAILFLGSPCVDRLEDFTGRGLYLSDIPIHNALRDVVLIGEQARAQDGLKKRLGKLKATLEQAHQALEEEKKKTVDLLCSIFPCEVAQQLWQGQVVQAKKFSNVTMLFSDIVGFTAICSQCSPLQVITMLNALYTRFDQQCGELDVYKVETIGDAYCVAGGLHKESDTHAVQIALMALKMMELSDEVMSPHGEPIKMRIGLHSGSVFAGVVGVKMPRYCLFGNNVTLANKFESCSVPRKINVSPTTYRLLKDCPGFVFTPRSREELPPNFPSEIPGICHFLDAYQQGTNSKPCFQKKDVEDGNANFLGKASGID
T1 sequence (Q02153 whole entry): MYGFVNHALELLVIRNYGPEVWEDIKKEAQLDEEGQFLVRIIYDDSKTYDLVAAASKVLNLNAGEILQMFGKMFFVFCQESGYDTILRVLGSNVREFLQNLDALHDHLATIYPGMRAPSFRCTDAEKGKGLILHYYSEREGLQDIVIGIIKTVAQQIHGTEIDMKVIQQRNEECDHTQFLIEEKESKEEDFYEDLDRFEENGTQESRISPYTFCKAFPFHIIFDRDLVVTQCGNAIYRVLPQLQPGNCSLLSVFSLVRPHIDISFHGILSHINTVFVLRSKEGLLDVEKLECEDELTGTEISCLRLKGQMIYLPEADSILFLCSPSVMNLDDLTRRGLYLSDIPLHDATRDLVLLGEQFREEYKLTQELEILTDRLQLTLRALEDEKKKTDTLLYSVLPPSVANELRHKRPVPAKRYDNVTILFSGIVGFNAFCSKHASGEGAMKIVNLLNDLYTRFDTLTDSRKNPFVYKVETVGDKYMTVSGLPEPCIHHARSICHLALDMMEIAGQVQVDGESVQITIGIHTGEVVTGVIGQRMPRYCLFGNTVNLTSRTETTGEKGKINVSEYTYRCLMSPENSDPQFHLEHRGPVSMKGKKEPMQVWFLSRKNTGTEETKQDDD

The molecule `COC(=O)N1CCC(c2ccc(OCC3=C(c4cccc(-n5ncc(C(=O)O)c5C(F)(F)F)n4)CCC3)c(C)c2)CC1` [Example 24-3, 1-(6-(2-((4-(1-(Methoxycarbonyl)piperidin-4-yl)-2-methylphenoxy)methyl)cyclopent-1-en-1-yl)pyridin-2-yl)-5-(trifluoromethyl)-1H-pyrazole-4-carboxylic acid] came in with an EC50 of 22 nM.
To `CCc1cc(OCC2=C(c3cccc(-n4ncc(C(=O)O)c4C(F)F)n3)CCCC2C)ccc1C1CCN(C(=O)C2CC2)CC1` (single isomer, unassigned; (-)) [Example 20b (−), (−)-1-(6-(2-((4-(1-(cyclopropanecarbonyl)piperidin-4-yl)-3-ethylphenoxy)methyl)-3-methylcyclohex-1-en-1-yl)pyridin-2-yl)-5-(difluoromethyl)-1H-pyrazole-4-carboxylic acid] belongs 2 nM; to `O=C(O)c1cnn(-c2cccc(C3=C(COc4ccc(C5CCN(C(=O)C6CC6)CC5)cc4)CCCC3)n2)c1C(F)(F)F` [Example 2-6, 1-(6-(2-((4-(1-(cyclopropanecarbonyl)piperidin-4-yl)phenoxy)methyl)cyclohex-1-en-1-yl)pyridin-2-yl)-5-(trifluoromethyl)-1H-pyrazole-4-carboxylic acid], 6.3 nM.
To `CCc1cc(OCC2=C(c3cccc(-n4ncc(C(=O)O)c4C(F)(F)F)n3)CCCC2C)ccc1C1CCN(C(=O)C2CC2)CC1` (single isomer, unassigned; (-)) [Example 13b, (−)-1-(6-(2-((4-(1-(Cyclopropanecarbonyl)piperidin-4-yl)-3-ethylphenoxy)methyl)-3-methylcyclohex-1-en-1-yl)pyridin-2-yl)-5-(trifluoromethyl)-1H-pyrazole-4-carboxylic acid] belongs 9 nM; to `O=C(O)c1cnn(-c2cccc(C3=C(CNc4ccc(C5CCN(C(=O)C6CC6)CC5)cc4)CCCC3)n2)c1C(F)(F)F` [Example 27-2, 1-(6-(2-(((4-(1-(Cyclopropanecarbonyl)piperidin-4-yl)phenyl)amino)methyl)cyclohex-1-en-1-yl)pyridin-2-yl)-5-(trifluoromethyl)-1H-pyrazole-4-carboxylic acid], 5 nM.
To `Cc1cc(C2CCN(C(=O)N(C)C)CC2)ccc1OCC1=C(c2cccc(-n3ncc(C(=O)O)c3C(F)(F)F)n2)CCC1` [Example 23, 1-(6-(2-((4-(1-(Dimethylcarbamoyl)piperidin-4-yl)-2-methylphenoxy)methyl)cyclopent-1-en-1-yl)pyridin-2-yl)-5-(trifluoromethyl)-1H-pyrazole-4-carboxylic acid] belongs 3.5 nM; to `CCc1cc(C2CCN(C(=O)C3CC3)CC2)ccc1OCC1=C(c2cccc(-n3ncc(C(=O)O)c3C(F)(F)F)n2)CCCC1` [Example 8-1, 1-(6-(2-((4-(1-(cyclopropanecarbonyl)piperidin-4-yl)-2-ethylphenoxy)methyl)cyclohex-1-en-1-yl)pyridin-2-yl)-5-(trifluoromethyl)-1H-pyrazole-4-carboxylic acid], 5.5 nM; to `Cc1cc(C2CCN(C(=O)[C@H](C)O)CC2)ccc1OCC1=C(c2cccc(-n3ncc(C(=O)O)c3C(F)(F)F)n2)CCCC1` [Example 3, (S)-1-(6-(2-((4-(1-(2-hydroxypropanoyl)piperidin-4-yl)-2-methylphenoxy)methyl)cyclohex-1-en-1-yl)pyridin-2-yl)-5-(trifluoromethyl)-1H-pyrazole-4-carboxylic acid], not above 0.5 nM.
On to `Cc1cc(C2CCN(C(=O)N(C)C)CC2)ccc1OCC1=C(c2cccc(-n3ncc(C(=O)O)c3C(F)(F)F)n2)CCCC1` [Example 2-4, 1-(6-(2-((4-(1-(dimethylcarbamoyl)piperidin-4-yl)-2-methylphenoxy)methyl)cyclohex-1-en-1-yl)pyridin-2-yl)-5-(trifluoromethyl)-1H-pyrazole-4-carboxylic acid], for which the EC50 amounted to 1 nM.
Under `Cc1cc(C2CCN(C(=O)C3CC3)CC2)ccc1OCC1=C(c2cccc(-n3ncc(C(=O)O)c3C(F)(F)F)n2)CC(C)CC1` (single isomer, unassigned; (-)) [Example 12 (−), (−)-1-(6-(2-((4-(1-(cyclopropanecarbonyl)piperidin-4-yl)-2-methylphenoxy)methyl)-5-methylcyclohex-1-en-1-yl)pyridin-2-yl)-5-(trifluoromethyl)-1H-pyrazole-4-carboxylic acid] stands not above 0.5 nM; under `Cc1cc(C2CCN(C(=O)CO)CC2)ccc1OCC1=C(c2cccc(-n3ncc(C(=O)O)c3C(F)(F)F)n2)CCC1` [Example 24-1, 1-(6-(2-((4-(1-(2-hydroxyacetyl)piperidin-4-yl)-2-methylphenoxy)methyl)cyclopent-1-en-1-yl)pyridin-2-yl)-5-(trifluoromethyl)-1H-pyrazole-4-carboxylic acid], 19 nM; under `CCN(CC)C(=O)N1CCC(c2ccc(OCC3=C(c4cccc(-n5ncc(C(=O)O)c5C(F)(F)F)n4)CCCC3)c(C)c2)CC1` [Example 2-7, 1-(6-(2-((4-(1-(diethylcarbamoyl)piperidin-4-yl)-2-methylphenoxy)methyl)cyclohex-1-en-1-yl)pyridin-2-yl)-5-(trifluoromethyl)-1H-pyrazole-4-carboxylic acid], 2 nM.
To `CCc1cc(OCC2=C(c3cccc(-n4ncc(C(=O)O)c4C(F)(F)F)n3)CCCC2C)ccc1C1CCN(C(=O)C2CC2)CC1` (single isomer, unassigned; (+)) [Example 13a, (+)-1-(6-(2-((4-(1-(Cyclopropanecarbonyl)piperidin-4-yl)-3-ethylphenoxy)methyl)-3-methylcyclohex-1-en-1-yl)pyridin-2-yl)-5-(trifluoromethyl)-1H-pyrazole-4-carboxylic acid] belongs 1 nM; to `CCc1cc(OCC2=C(c3cccc(-n4ncc(C(=O)O)c4C)n3)CCCC2C)ccc1C1CCN(C(=O)C2CC2)CC1` (single isomer, unassigned; (+)) [Example 16a, (+)-1-(6-(2-((4-(1-(Cyclopropanecarbonyl)piperidin-4-yl)-3-ethylphenoxy)methyl)-3-methylcyclohex-1-en-1-yl)pyridin-2-yl)-5-methyl-1H-pyrazole-4-carboxylic acid], not above 0.5 nM; to `Cc1cc(C2CCN(C(=O)C3CC3)CC2)ccc1OCC1=C(c2cccc(-n3ncc(C(=O)O)c3C(F)(F)F)n2)CCCC1C` (single isomer, unassigned; (+)) [Example 15a, (+)-1-(6-(2-((4-(1-(cyclopropanecarbonyl)piperidin-4-yl)-2-methylphenoxy)methyl)-3-methylcyclohex-1-en-1-yl)pyridin-2-yl)-5-(trifluoromethyl)-1H-pyrazole-4-carboxylic acid], not above 0.5 nM.
To `CCc1cc(OCC2=C(c3cccc(-n4ncc(C(=O)O)c4C)n3)CCCC2C)ccc1C1CCN(C(=O)[C@H](C)O)CC1` (single isomer, unassigned; diastereomer-2) [Example 19b] belongs 8 nM; to `CCc1c(C(=O)O)cnn1-c1cccc(C2=C(COc3ccc(C4CCN(C(=O)C5CC5)CC4)cc3C)CCCC2)n1` [Example 9, 1-(6-(2-((4-(1-(Cyclopropanecarbonyl)piperidin-4-yl)-2-methylphenoxy)methyl)cyclohex-1-en-1-yl)pyridin-2-yl)-5-ethyl-1H-pyrazole-4-carboxylic acid], not above 0.5 nM.
`O=C(O)c1cnn(-c2cccc(C3=C(COc4ccc([C@H]5CCN(C(=O)C6CC6)C[C@@H]5O)cc4)CCCC3)n2)c1C(F)(F)F` (racemic) [Example 29-2, (±)-1-(6-(2-((4-((3,4-trans)-1-(cyclopropanecarbonyl)-3-hydroxypiperidin-4-yl)phenoxy)methyl)cyclohex-1-en-1-yl)pyridin-2-yl)-5-(trifluoromethyl)-1H-pyrazole-4-carboxylic acid]: a half-maximal effect (EC50) was put at 420 nM.
To `Cc1cc(C2CCN(C(=O)OC(C)(C)C)CC2)ccc1OCC1=C(c2cccc(-n3ncc(C(=O)O)c3C(F)(F)F)n2)CCCC1` [Example 2-13, 1-(6-(2-((4-(1-(tert-butoxycarbonyl)piperidin-4-yl)-2-methylphenoxy)methyl)cyclohex-1-en-1-yl)pyridin-2-yl)-5-(trifluoromethyl)-1H-pyrazole-4-carboxylic acid] belongs 110 nM; to `Cc1cc(C2CCN(C(=O)c3ccccn3)CC2)ccc1OCC1=C(c2cccc(-n3ncc(C(=O)O)c3C(F)(F)F)n2)CCCC1` [Example 4-2, 1-(6-(2-((2-methyl-4-(1-picolinoylpiperidin-4-yl)phenoxy)methyl)cyclohex-1-en-1-yl)pyridin-2-yl)-5-(trifluoromethyl)-1H-pyrazole-4-carboxylic acid], 8.4 nM.
Under `CCc1cc(OCC2=C(c3cccc(-n4ncc(C(=O)O)c4C(F)F)n3)CCCC2C)ccc1C1CCN(C(=O)C2CC2)CC1` (single isomer, unassigned; (+)) [Example 20(b) (+), (+)-1-(6-(2-((4-(1-(cyclopropanecarbonyl)piperidin-4-yl)-3-ethylphenoxy)methyl)-3-methylcyclohex-1-en-1-yl)pyridin-2-yl)-5-(difluoromethyl)-1H-pyrazole-4-carboxylic acid] stands not above 0.5 nM.

Source of the values: patent US9957254B2, “Cyclohexen-1-yl-pyridin-2-yl-1h-pyrazole-4-carboxylic acid derivatives and the use thereof as soluble guanylate cyclase activators” (Novartis AG, priority 2014, dated 2018).
